Measured values from patent publication US8637521B2, “Substituted piperazin-2,5-diones and their use as multifunctional bioactive compounds” (priority 2006, dated 2014).
Like-named read-outs stand apart in the source and are kept apart here. Square brackets hold non-standard residues; d marks the D form. Peptide text beside a SMILES is read from it.

How the values were obtained:
[1] = target: μ-receptor (isolated guinea pig ileum, GPI) (Cavia porcellus, UniProt P97266); test: Peripheral opioid activity: inhibition of electrically-induced contractions of isolated guinea pig ileum (GPI); conditions: for Value of pD2 (M ± m): negative logarithm of EC50; for EC50: concentration reducing contraction amplitude by 50%, 5 replications
Experimental: The segment of GPI about 1 cm long was placed into a 10-ml organ bath containing Krebs solution at 34° C. […] Resting tension of the organ was 1 g. The segment of GPI was stimulated by single pulses duration 1 ms with 0.1 Hz at 80 V. The solution with isolated organs was constantly aerated. The contractions were recorded in an isometrical mode by a sensor K 30 (Hugo Sachs Elektronic KG) with paper register Rikadenki-series (Japan).
The substances tested were dissolved in distilled water and added cumulatively to the organ bath at a volume of 5 to 30 mcl. Each subsequent substance was added after the isolated organs were washed 3 or 4 times for 12-15 min. On the basis of the data obtained, dose-effects curves were plotted and the activity of substances was expressed by IC50 or pD2. The pD2 index was equal to a negative decimal logarithm of the substance concentration causing a 50% of the maximal effect.
New dermorphin analogues were tested in the standard model of Guinea pig ileum binding test.
For confirmation of opioid activity, the specific antagonist naloxson was used in concentration of 10^−5M. Each molecule was tested in 5 independent replications and relative activity was calculated as negative logarithm of EC50 (pD2).

mice F1(CBAxC57D16) = test: Analgesic activity, tail flick test, water 48° C., intraperitoneal; type: in vivo; conditions: Table 10; for Initial sensitivity level: before injection
Experimental: Two hundred and twenty mice F1(CBAxC57D16) first generation hybrids were used for testing of analgesic activity using the “tail flick” test. The water temperature was at 48° C. The maximal effect was for the period of 30 seconds. All peptides were injected intraperitoneally in the doses of 5, 10 or 20 mg/kg. Analgesic effect was estimated in the time interval of 15 to 120 min after peptide injection. Student's t-criterion was used for statistical calculations of the results. Statistical significance were at the level of p≦0.05.

BALB/c male mice = test: Antinociceptive activity, tail flick test with heat radiation, intragastral or intraperitoneal; type: in vivo
Experimental: For estimation of oral activity of novel cyclopeptides of the present invention, the “tail flick” test was used. The results were compared with those obtained using intraperitoneal administration.
Antinociceptive activity of the peptides of the present invention was assessed in experiments on BALB/c male mice weighing 22 to 24 g. The peptides were dissolved in saline and administered intraperitoneally or intragastrally.
The “Tail flick” test (D'Amour, F. E. et al. “A Method for Determining Loss of Pain Sensation”, J. Pharmacol. Exp. Ther., Vol. 72, Pages 74 to 79, 1941) was performed on an analgesimeter type 812, Hugo Sachs Electronick KG. Antinociceptive activity was defined as the absence of tail flick response on stimulation with a focused bundle of heat radiation with 6 sec at baseline response of 2.0-3.0 seconds.
Statistical treatment of the results was carried out by the Student's paired t-test.

[2] = Table 11, oral 50 mg/kg group, before administration
[3] = Table 11, oral 50 mg/kg, 15 min, cut-off 6 sec
[4] = Table 12, intraperitoneal 10 mg/kg group, before injection
[5] = Table 12, intraperitoneal 10 mg/kg, 15 min, cut-off 6 sec

μ-receptor (isolated guinea pig ileum, GPI), sequence (P97266 whole entry): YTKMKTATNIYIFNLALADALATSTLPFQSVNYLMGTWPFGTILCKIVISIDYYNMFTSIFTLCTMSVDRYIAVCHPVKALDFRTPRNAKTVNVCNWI

| Compound | Value of pD2 (M ± m) [1] | EC50 ([1]; read-out: Median EC50 in M) | Initial sensitivity level (mice F1(CBAxC57D16); 10 mg/kg group) | Effect duration (mice F1(CBAxC57D16); 10 mg/kg i.p., 15 min) | Effect duration (mice F1(CBAxC57D16); 10 mg/kg i.p., 30 min) | Effect duration (mice F1(CBAxC57D16); 10 mg/kg i.p., 45 min) | Effect duration (mice F1(CBAxC57D16); 10 mg/kg i.p., 60 min) | Effect duration (mice F1(CBAxC57D16); 10 mg/kg i.p., 90 min) | Effect duration (mice F1(CBAxC57D16); 10 mg/kg i.p., 120 min) | Initial sensitivity level, mean (BALB/c male mice; [2]) | Initial sensitivity level, mean (BALB/c male mice; [4]) | Effect duration (BALB/c male mice; [5]) | other results |
| --- | --- | --- | --- | --- | --- | --- | --- | --- | --- | --- | --- | --- | --- |
| CNC(=O)[C@H](CO)NC(=O)[C@@H]1CCCN1C(=O)[C@H](Cc1ccc(O)cc1)NC(=O)[C@@H](C)NC(=O)[C@H](Cc1ccccc1)NC(=O)[C@@H](C)NC(=O)[C@@H](N)Cc1ccc(O)cc1 [Compound 50, H-Tyr-D-Ala-Phe-D-Ala-Tyr-Pro-Ser-NH-CH3, reference compound] (H-Y[dA]F[dA]YPS-NHMe) | 7.95 ± 0.07 | 9.5 nM | 2.9 ± 0.2 s | 5.9 ± 0.7 s | 10.7 ± 0.8 s | 12.2 ± 2.6 s | 7.2 ± 1.2 s | 6.9 ± 1.4 s | 3.7 ± 0.4 s | 2.6 ± 0.1 s | 2.0 ± 0.1 s | 3.6 ± 0.7 s | Initial sensitivity level (mice F1(CBAxC57D16); 5 mg/kg group): 3.0 ± 0.1 s; Effect duration (mice F1(CBAxC57D16); 5 mg/kg i.p., 15 min after injection): 9.0 ± 1.7 s; Effect duration (mice F1(CBAxC57D16); 5 mg/kg i.p., 30 min): 10.3 ± 2.6 s; Effect duration (mice F1(CBAxC57D16); 5 mg/kg i.p., 45 min): 14.3 ± 3.7 s; Effect duration (mice F1(CBAxC57D16); 5 mg/kg i.p., 60 min): 10.8 ± 1.9 s; Effect duration (mice F1(CBAxC57D16); 5 mg/kg i.p., 90 min): 6.4 ± 1.5 s; Effect duration (mice F1(CBAxC57D16); 5 mg/kg i.p., 120 min): 3.5 ± 0.2 s; Effect duration (BALB/c male mice; [3]): 3.3 ± 0.6 s; Effect duration (BALB/c male mice; Table 11, oral 50 mg/kg, 30 min): 2.3 ± 0.1 s; Effect duration (BALB/c male mice; Table 11, oral 50 mg/kg, 90 min): 4.3 ± 0.6 s |
| C[C@@H](NC(=O)[C@H](Cc1ccc(O)cc1)NC(=O)[C@@H](N)CCCNC(=N)N)C(=O)N[C@@H](Cc1ccccc1)C(=O)NCC(=O)O [Compound 52, Arg-Tyr-D-Ala-Phe-Gly-OH] (H-RY[dA]FG-OH; N-terminus assumed) | 5.50 ± 0.07 | – | – | – | – | – | – | – | – | – | – | – | EC50 ([1]; read-out: Median EC50): 3000 nM |
| C[C@@H](NC(=O)[C@H](Cc1ccccc1)NC(=O)[C@@H](C)NC(=O)[C@H](Cc1ccc(O)cc1)NC(=O)[C@@H](N)CCCNC(=N)N)C(=O)O [Compound 53, H-Arg-Tyr-D-Ala-Phe-D-AlaOH] (H-RY[dA]F[dA]-OH) | 6.06 ± 0.12 | 1000 nM | – | – | – | – | – | – | – | – | 2.4 ± 0.1 s | 2.7 ± 0.1 s | – |
| CC(C)C[C@H](NC(=O)[C@H](Cc1ccccc1)NC(=O)CNC(=O)[C@@H](C)NC(=O)[C@@H](N)Cc1ccc(O)cc1)C(=O)N[C@@H](CCCNC(=N)N)C(=O)O [Compound 56, H-Tyr-D-Ala-Gly-Phe-Leu-Arg-OH] (H-Y[dA]GFLR-OH) | 7.53 ± 0.22 | 50 nM | – | – | – | – | – | – | – | – | – | – | – |
| COc1cccc(C2(O)CCCCC2CN(C)C)c1 (stereo not drawn) [Tramadol] | – | – | – | – | – | – | – | – | – | 2.6 ± 0.1 s | – | – | Effect duration (BALB/c male mice; [3]): 2.6 ± 0.1 s |
| Cyclo-[L-Lys(H-Tyr-D-Ala-Phe-D-Ala-Tyr-Pro-Ser)-L-Glu(L-Trp-NH2)] | – | – | 3.2 ± 0.3 s | 11.6 ± 1.7 s | 15.5 ± 1.6 s | 15.7 ± 1.2 s | 13.0 ± 1.5 s | 9.9 ± 1.5 s | 6.8 ± 0.5 s | 2.7 ± 0.1 s | 2.1 ± 0.1 s | 3.9 ± 0.8 s | Initial sensitivity level (mice F1(CBAxC57D16); 20 mg/kg group): 3.0 ± 0.2 s; Effect duration (mice F1(CBAxC57D16); 20 mg/kg i.p., 15 min): 1.4 ± 1.6 s; Effect duration (mice F1(CBAxC57D16); 20 mg/kg i.p., 30 min): 18.1 ± 2.3 s; Effect duration (mice F1(CBAxC57D16); 20 mg/kg i.p., 45 min): 16.8 ± 2.2 s; Effect duration (mice F1(CBAxC57D16); 20 mg/kg i.p., 60 min): 12.7 ± 1.8 s; Effect duration (mice F1(CBAxC57D16); 20 mg/kg i.p., 90 min): 11.7 ± 1.2 s; Effect duration (mice F1(CBAxC57D16); 20 mg/kg i.p., 120 min): 6.3 ± 0.6 s |
| Cyclo-[L-Lys(H-Tyr-D-Ala-Phe-D-Ala-Tyr-Pro-Ser)-L-Glu(L-Trp-OH)] | – | – | 3.7 ± 0.2 s | 6.8 ± 0.6 s | 6.3 ± 0.7 s | 8.4 ± 1.4 s | 7.7 ± 1.7 s | 6.7 ± 1.0 s | 4.6 ± 0.3 s | 2.2 ± 0.1 s | 2.1 ± 0.1 s | 4.1 ± 0.4 s | Initial sensitivity level (mice F1(CBAxC57D16); 20 mg/kg group): 3.4 ± 0.2 s; Effect duration (mice F1(CBAxC57D16); 20 mg/kg i.p., 15 min): 7.8 ± 0.5 s; Effect duration (mice F1(CBAxC57D16); 20 mg/kg i.p., 30 min): 8.3 ± 0.8 s; Effect duration (mice F1(CBAxC57D16); 20 mg/kg i.p., 45 min): 8.7 ± 1.2 s; Effect duration (mice F1(CBAxC57D16); 20 mg/kg i.p., 60 min): 9.5 ± 1.2 s; Effect duration (mice F1(CBAxC57D16); 20 mg/kg i.p., 90 min): 9.7 ± 1.3 s; Effect duration (mice F1(CBAxC57D16); 20 mg/kg i.p., 120 min): 8.2 ± 1.7 s |
